Measurements: patent US8889676B2, “3-ureidoisoquinolin-8-yl derivatives” (Actelion Pharmaceuticals Ltd., priority 2011, dated 2014)
Values after ≈ are worked out from the molar mass of the structure shown.

system: S. pneumoniae ATCC 49619; assay: Minimal inhibitory concentration (MIC) by broth microdilution (CLSI M7-A7); type: cell-based, Streptococcus pneumoniae; conditions: Streptococcus pneumoniae, ATCC49619; cation-adjusted Mueller Hinton Broth supplemented with 3% (v/v) lysed horse blood; microdilution method
Summary of the method: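 Broth microdilution per CLSI M7-A7 in cation-adjusted Mueller-Hinton broth with 3% (v/v) lysed horse blood for S. pneumoniae. MIC in mg/l.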

Row | Compound | MIC [µg/mL]
1 | CCNC(=O)Nc1cc2c(-c3ccnc(C(F)(F)F)c3)ccc(CNC(=O)OC)c2cn1 [Example 165, [3-(3-ethyl-ureido)-5-(2-trifluoromethyl-pyridin-4-yl)-isoquinolin-8-ylmethyl]-carbamic acid methyl ester] | 4 (≈ 8.94 µM)
2 | CCNC(=O)Nc1cc2c(-c3ccnc(OC(C)(C)C)c3)ccc(CNC(=O)OC)c2cn1 [Example 167, [5-(2-tert-butoxy-pyridin-4-yl)-3-(3-ethyl-ureido)-isoquinolin-8-ylmethyl]-carbamic acid methyl ester] | 4 (≈ 8.86 µM)
3 | CCNC(=O)Nc1cc2c(-c3ccnc(O)c3)ccc(CNC(=O)OC)c2cn1 [Example 168, [3-(3-ethyl-ureido)-5-(2-hydroxy-pyridin-4-yl)-isoquinolin-8-ylmethyl]-carbamic acid methyl ester] | 8 (≈ 20.2 µM)
4 | CCNC(=O)Nc1cc2c(-c3ccnc(N4CCOCC4)c3)ccc(CNC(=O)OC)c2cn1 [Example 169, [3-(3-ethyl-ureido)-5-(2-morpholin-4-yl-pyridin-4-yl)-isoquinolin-8-ylmethyl]-carbamic acid methyl ester] | 4 (≈ 8.61 µM)
5 | CCNC(=O)Nc1cc2c(-c3ccnc(CC)c3)ccc(CNC(=O)OC)c2cn1 [Example 170, [5-(2-ethyl-pyridin-4-yl)-3-(3-ethyl-ureido)-isoquinolin-8-ylmethyl]-carbamic acid methyl ester] | 1 (≈ 2.45 µM)
6 | CCNC(=O)Nc1cc2c(-c3ccnc(OC(C)C)c3)ccc(CNC(=O)OC)c2cn1 [Example 173, [3-(3-ethyl-ureido)-5-(2-isopropoxy-pyridin-4-yl)-isoquinolin-8-ylmethyl]-carbamic acid methyl ester] | 4 (≈ 9.14 µM)
7 | CCNC(=O)Nc1cc2c(-c3ccnc(N4CCCCC4)c3)ccc(CNC(=O)OC)c2cn1 [Example 174, [3-(3-ethyl-ureido)-5-(3,4,5,6-tetrahydro-2H-[1,2′]bipyridinyl-4′-yl)-isoquinolin-8-ylmethyl]-carbamic acid methyl ester] | 4 (≈ 8.65 µM)
8 | CCNC(=O)Nc1cc2c(-c3ccnc(CCC(N)=O)c3)ccc(CNC(=O)OCCOC)c2cn1 [Example 177, [5-[2-(2-carbamoyl-ethyl)-pyridin-4-yl]-3-(3-ethyl-ureido)-isoquinolin-8-ylmethyl]-carbamic acid 2-methoxy-ethyl ester] | 8 (≈ 16.2 µM)
9 | CCNC(=O)Nc1cc2c(-c3ccnc(CC(=O)OC(C)(C)C)c3)ccc(CNC(=O)OCCOC)c2cn1 [Example 178, (4-{3-(3-ethyl-ureido)-8-[(2-methoxy-ethoxycarbonylamino)-methyl]-isoquinolin-5-yl}-pyridin-2-yl)-acetic acid tert-butyl ester] | 2 (≈ 3.72 µM)
10 | CCNC(=O)Nc1cc2c(-c3ccnc(C)c3)ccc(CN(C)C(=O)OC)c2cn1 [Example 180, [3-(3-ethyl-ureido)-5-(2-methyl-pyridin-4-yl)-isoquinolin-8-ylmethyl]-methyl-carbamic acid methyl ester] | 8 (≈ 19.6 µM)
11 | CCNC(=O)Nc1cc2c(-c3ccnc(C)c3)ccc(CN(C)C(=O)OCCOC)c2cn1 [Example 181, [3-(3-ethyl-ureido)-5-(2-methyl-pyridin-4-yl)-isoquinolin-8-ylmethyl]-methyl-carbamic acid 2-methoxy-ethyl ester] | 8 (≈ 17.7 µM)
12 | CCNC(=O)Nc1cc2c(-c3ccncc3)ccc(CNC(=O)OCCC(N)=O)c2cn1 [Example 182, [3-(3-ethyl-ureido)-5-pyridin-4-yl-isoquinolin-8-ylmethyl]-carbamic acid 2-carbamoyl-ethyl ester] | 2 (≈ 4.58 µM)
13 | CCNC(=O)Nc1cc2cccc(CNC(=O)c3cnn[nH]3)c2cn1 [Example 183, 3H-[1,2,3]triazole-4-carboxylic acid [3-(3-ethyl-ureido)-isoquinolin-8-ylmethyl]-amide] | 1 (≈ 2.95 µM)
14 | CCNC(=O)Nc1cc2c(-c3ccnc(F)c3C)ccc(CNC(=O)OC)c2cn1.Cl [Example 187, [3-(3-ethyl-ureido)-5-(2-fluoro-3-methyl-pyridin-4-yl)-isoquinolin-8-ylmethyl]-carbamic acid methyl ester hydrochloride] | 4
15 | CCNC(=O)Nc1cc2c(-c3cc(C)ncc3F)ccc(CNC(=O)OC)c2cn1.Cl [Example 188, [3-(3-ethyl-ureido)-5-(5-fluoro-2-methyl-pyridin-4-yl)-isoquinolin-8-ylmethyl]-carbamic acid methyl ester hydrochloride] | 2
16 | CCNC(=O)Nc1cc2c(-c3ccnc(C)c3C)ccc(CNC(=O)OC)c2cn1.Cl [Example 189, [5-(2,3-dimethyl-pyridin-4-yl)-3-(3-ethyl-ureido)-isoquinolin-8-ylmethyl]-carbamic acid methyl ester hydrochloride] | 8
17 | CCNC(=O)Nc1cc2c(-c3cc(C)ncc3C)ccc(CNC(=O)OC)c2cn1.Cl [Example 190, [5-(2,5-dimethyl-pyridin-4-yl)-3-(3-ethyl-ureido)-isoquinolin-8-ylmethyl]-carbamic acid methyl ester hydrochloride] | 4
18 | CCNC(=O)Nc1cc2c(-c3cc(F)ncc3F)ccc(CNC(=O)OC)c2cn1.Cl [Example 191, [5-(2,5-difluoro-pyridin-4-yl)-3-(3-ethyl-ureido)-isoquinolin-8-ylmethyl]-carbamic acid methyl ester hydrochloride] | 2
19 | CCNC(=O)Nc1cc2c(-c3ccnc(CC(=O)NC)c3)ccc(CNC(=O)OC)c2cn1 [Example 193, [3-(3-ethyl-ureido)-5-(2-(methylcarbamoyl-methyl)-pyridin-4-yl)-isoquinolin-8-ylmethyl]-carbamic acid methyl ester] | 8 (≈ 17.8 µM)
20 | CCNC(=O)Nc1cc2c(-c3ccnc(CCC(=O)NC)c3)ccc(CNC(=O)OC)c2cn1 [Example 195, {3-(3-ethyl-ureido)-5-[2-(2-methylcarbamoyl-ethyl)-pyridin-4-yl]-isoquinolin-8-ylmethyl}-carbamic acid methyl ester] | 4 (≈ 8.61 µM)

The next lines start with the values.

Row | MIC [µg/mL] | Compound
21 | 0.5 (≈ 1.26 µM) | CCNC(=O)Nc1cc2c(-c3ccnc(F)c3)ccc(CNC(=O)OC)c2cn1 [Example 161, [3-(3-ethyl-ureido)-5-(2-fluoro-pyridin-4-yl)-isoquinolin-8-ylmethyl]-carbamic acid methyl ester]
22 | 1 (≈ 2.44 µM) | CCNC(=O)Nc1cc2c(-c3ccnc(OC)c3)ccc(CNC(=O)OC)c2cn1 [Example 162, [3-(3-ethyl-ureido)-5-(2-methoxy-pyridin-4-yl)-isoquinolin-8-ylmethyl]-carbamic acid methyl ester]
23 | 0.5 (≈ 1.27 µM) | CCNC(=O)Nc1cc2c(-c3ccnc(N)c3)ccc(CNC(=O)OC)c2cn1 [Example 163, [5-(2-amino-pyridin-4-yl)-3-(3-ethyl-ureido)-isoquinolin-8-ylmethyl]-carbamic acid methyl ester]
24 | 1 (≈ 2.45 µM) | CCNC(=O)Nc1cc2c(-c3cc(C)nc(C)c3)ccc(CNC(=O)OC)c2cn1 [Example 164, [5-(2,6-dimethyl-pyridin-4-yl)-3-(3-ethyl-ureido)-isoquinolin-8-ylmethyl]-carbamic acid methyl ester]
25 | 2 (≈ 4.72 µM) | CCNC(=O)Nc1cc2c(-c3ccnc(OCC)c3)ccc(CNC(=O)OC)c2cn1 [Example 166, [5-(2-ethoxy-pyridin-4-yl)-3-(3-ethyl-ureido)-isoquinolin-8-ylmethyl]-carbamic acid methyl ester]
26 | 4 (≈ 8.92 µM) | CCNC(=O)Nc1cc2c(-c3ccnc(N4CCCC4)c3)ccc(CNC(=O)OC)c2cn1 [Example 171, [3-(3-ethyl-ureido)-5-(2-pyrrolidin-1-yl-pyridin-4-yl)-isoquinolin-8-ylmethyl]-carbamic acid methyl ester]
27 | 1 (≈ 2.41 µM) | CCNC(=O)Nc1cc2c(-c3cc(F)nc(F)c3)ccc(CNC(=O)OC)c2cn1 [Example 172, [5-(2,6-difluoro-pyridin-4-yl)-3-(3-ethyl-ureido)-isoquinolin-8-ylmethyl]-carbamic acid methyl ester]
28 | 0.5 (≈ 1.27 µM) | CCNC(=O)Nc1cc2c(-c3ccnc(C)c3)ccc(CNC(=O)OC)c2cn1 [Example 175, [3-(3-ethyl-ureido)-5-(2-methyl-pyridin-4-yl)-isoquinolin-8-ylmethyl]-carbamic acid methyl ester]
29 | 1 (≈ 2.3 µM) | CCNC(=O)Nc1cc2c(-c3ccnc(C)c3)ccc(CNC(=O)OC(C)(C)C)c2cn1 [Example 176, [3-(3-ethyl-ureido)-5-(2-methyl-pyridin-4-yl)-isoquinolin-8-ylmethyl]-carbamic acid tert-butyl ester]
30 | 8 (≈ 17.1 µM) | CCNC(=O)Nc1cc2c(-c3ccnc(C(N)=O)c3)ccc(CNC(=O)OCCOC)c2cn1 [Example 179, [5-(2-carbamoyl-pyridin-4-yl)-3-(3-ethyl-ureido)-isoquinolin-8-ylmethyl]-carbamic acid 2-methoxy-ethyl ester]
31 | 1 | CCNC(=O)Nc1cc2c(-c3ccncc3F)ccc(CNC(=O)OC)c2cn1.Cl [Example 184, [3-(3-ethyl-ureido)-5-(3-fluoro-pyridin-4-yl)-isoquinolin-8-ylmethyl]-carbamic acid methyl ester hydrochloride]
32 | 2 | CCNC(=O)Nc1cc2c(-c3ccncc3C)ccc(CNC(=O)OC)c2cn1.Cl [Example 185, [3-(3-ethyl-ureido)-5-(3-methyl-pyridin-4-yl)-isoquinolin-8-ylmethyl]-carbamic acid methyl ester hydrochloride]
33 | 2 | CCNC(=O)Nc1cc2c(-c3cc(F)ncc3C)ccc(CNC(=O)OC)c2cn1.Cl [Example 186, [3-(3-ethyl-ureido)-5-(2-fluoro-5-methyl-pyridin-4-yl)-isoquinolin-8-ylmethyl]-carbamic acid methyl ester hydrochloride]
34 | 2 (≈ 4.57 µM) | CCNC(=O)Nc1cc2c(-c3ccnc(CCCO)c3)ccc(CNC(=O)OC)c2cn1 [Example 192, {3-(3-ethyl-ureido)-5-[2-(3-hydroxy-propyl)-pyridin-4-yl]-isoquinolin-8-ylmethyl}-carbamic acid methyl ester]
35 | 4 (≈ 8.61 µM) | CCNC(=O)Nc1cc2c(-c3ccnc(CC(=O)N(C)C)c3)ccc(CNC(=O)OC)c2cn1 [Example 194, [5-[2-(dimethylcarbamoyl-methyl)-pyridin-4-yl]-3-(3-ethyl-ureido)-isoquinolin-8-ylmethyl]-carbamic acid methyl ester]
